# Laboratory results from US20240132445A1, “PHENOL DERIVATIVE AND APPLICATION THEREOF IN MEDICAMENTS” (priority 2021, published 2024).
# Where two headings read alike, the source gives them in different places.
# Tests used:
# Beagle dogs = test: Hemodynamic effect study in conscious Beagle dogs (telemetry); assay type: in vivo; conditions: iv
# Procedure: The experiment used an emka PACK 4G telemetry system to detect the effects of intravenous injection of control group 3 and compound 20 on electrocardiogram, blood pressure and body temperature in conscious Beagle dogs, providing reference information for evaluating the safety of clinical use.
# Four Beagle dogs were subjected to crossover administration, with a vehicle control (5% DMSO+10% solutol+85% Saline), control group 3 (2 mg/kg), compound 20 (0.5 mg/kg) and compound 20 (1 mg/kg) for each intravenous injection, with an administration volume of 2 mL/kg. Observations were respectively conducted before administration and within 1 h after administration on the day of administration. Anal temperature was measured before administration and at 30 min, 1 h, 2 h and 3 h after administration during each administration period; and electrocardiogram parameters were continuously collected from 0.5 h before administration to 3 h after administration during each administration period. Blood pressure was collected at 15 min after collection was started, and was collected at 2 min, 5 min, 10 min, 20 min, 30 min, 1 h, 2 h and 3 h after administration. The electrocardiogram, blood pressure data, body temperature, and clinical observation results on the day of administration at various time points including before administration (at 30 min after collection was started) and at 2 min, 5 min, 10 min, 20 min, 30 min, 1 h, 2 h and 3 h after administration were analysed and evaluated.
# [1] = Pharmacokinetic study in Beagle dogs; assay type: in vivo; conditions: male, dog, plasma, iv, 0.5 mg/kg
# Procedure: Six male Beagle dogs (6-10 kg) were randomized into 2 groups (n=3): control group 3 and compound 20. The […] were administered via intravenous injection at 0.5 mg/kg (control group 3) and 0.5 mg/kg (compound 20), respectively, with an administration volume of 1 mL/kg and a vehicle of 5% DMSO+10% solutol (HS15)+85% Saline. Blood samples were taken before administration and at 2 min, 5 min, 10 min, 20 min, 30 min, 1 h, 1.5 h, 2 h and 3 h after administration. Plasma samples were taken by centrifugation, and stored in a −80° C. refrigerator until LC-MS analysis to be tested. After sample processing, quantitative analysis of substances in plasma was conducted using LCMS/MS to detect the concentration of prototype compounds in the plasma. The plasma concentration/time curve obtained in this way was used to calculate pharmacokinetic parameters by a validated pharmacokinetic computer program.
# GABAA (α1β2γ2) receptor = GABAA (α1β2γ2) receptor (Homo sapiens (Human), UniProt P14867+P18507+P47870); test: Whole-cell patch-clamp of GABAA (α1β2γ2) receptor current in stably expressing HEK293 cells; assay type: cell-based; conditions: allosteric regulation
# Description: Gamma-aminobutyric acid (GABA) was an important inhibitory amino acid neurotransmitter in the central nervous system, and functioned by binding to GABA receptors. The GABA receptors were divided into three subtypes: GABAA, GABAB and GABAC, among which the GABAA receptor was the most important. The GABAA receptor was an anion-selective ion channel that could enhance chloride ion permeability and thus reduce neuronal excitability. The GABAA receptor was involved in regulating general anesthesia and was also closely related to diseases such as neurological and psychiatric disorders, e.g., depression, insomnia, anxiety and epilepsy. […]
# HEK293 cell lines stably expressing the GABAA (α1β2γ2) receptor were used. […] The voltage stimulus of GABA receptor current recorded by a whole-cell patch-clamp technique was as follows: when whole-cell sealing was formed, the cell membrane voltage was clamped at −70 mV. The peak value of current was recorded after sequentially spraying test compounds from low concentration to high concentration and 100 μM GABA onto the cell surface in a Gap-free mode. […] Then slow capacitance compensation was conducted, and the membrane capacitance (pF) and series resistance were recorded. […] Multiple cells were independently and repeatedly detected. […]
# SD rats = test: animal or person; assay type: in vivo; conditions: rats
# Procedure: (§2) SD rats, half male and half female, were fasted with water available for 12 h, and were administered via intravenous injection at an administration volume of 10 mL/kg. Then the anesthesia induction time (the time period from drug administration to disappearance of the righting reflex), the anesthesia maintenance time (the time period from disappearance of the righting reflex to recovery of the righting reflex and revival) and the anesthesia recovery time (the time period from revival to complete recovery) were recorded. Indicators including the median effective dose (ED50), median lethal dose (LD50), therapeutic index (TI, i.e. LD50/ED50), anesthesia induction time, anesthesia maintenance time and maximum tolerated dose were used to evaluate the effect and safety of anesthesia.
# in vivo [2] = assay type: in vivo, rats; conditions: both sexes, Sprague-Dawley, rat, in vivo, rats
# Procedure: as §2
# [3] = Pharmacokinetic study in rats; assay type: in vivo, SD rats; conditions: male, Sprague-Dawley, rat, plasma, iv, 1 mg/kg
# Procedure: Twelve male SD rats (200-300 g) were randomized into 2 groups (n=6): control group 3 and compound 20. The rats were administered via intravenous injection at 1 mg/kg (control group 3) and 1 mg/kg (compound 20), respectively, with an administration volume of 5 mL/kg and a vehicle of 5% DMSO+10% solutol (HS15)+85% Saline. Blood samples were taken before administration and at 2 min, 4 min, 8 min, 12 min, 15 min, 30 min, 1 h, 1.5 h and 2 h after administration. Plasma samples were taken by centrifugation, and stored in a −80° C. refrigerator until LC-MS analysis to be tested. After sample processing, quantitative analysis of substances in plasma was conducted using LCMS/MS to detect the concentration of prototype compounds in the plasma. The plasma concentration/time curve obtained in this way was used to calculate pharmacokinetic parameters by a validated pharmacokinetic computer program.
# ICR mice = test: animal or person
# Procedure: (§1) SPF-grade ICR mice, each weighing 18-22 g, half male and half female, were used. A well-established mouse anesthesia model was used to study the general anesthesia effect of the compound of the present invention. The compounds were formulated with solvents of 10% DMSO, 15% solutol (HS15) and 75% saline to the desired concentration, for further use. After adapting to the experimental environment, the experimental animals were fasted with water available for 12 h, and were administered via intravenous injection at an administration volume of 10 mL/kg. Then the anesthesia induction time (the time period from drug administration to disappearance of the righting reflex) and the anesthesia maintenance time (the time period from disappearance of the righting reflex to recovery of the righting reflex) were recorded. Indicators including the median effective dose (ED50), median lethal dose (LD50), therapeutic index (TI, i.e. LD50/ED50), anesthesia induction time, anesthesia maintenance time and maximum tolerated dose were used to evaluate the effect and safety of anesthesia.
# in vivo [4] = conditions: both, ICR, mouse, in vivo, iv
# Procedure: as §1
# Chain of GABAA (α1β2γ2) receptor (P14867 28-456 limits assumed): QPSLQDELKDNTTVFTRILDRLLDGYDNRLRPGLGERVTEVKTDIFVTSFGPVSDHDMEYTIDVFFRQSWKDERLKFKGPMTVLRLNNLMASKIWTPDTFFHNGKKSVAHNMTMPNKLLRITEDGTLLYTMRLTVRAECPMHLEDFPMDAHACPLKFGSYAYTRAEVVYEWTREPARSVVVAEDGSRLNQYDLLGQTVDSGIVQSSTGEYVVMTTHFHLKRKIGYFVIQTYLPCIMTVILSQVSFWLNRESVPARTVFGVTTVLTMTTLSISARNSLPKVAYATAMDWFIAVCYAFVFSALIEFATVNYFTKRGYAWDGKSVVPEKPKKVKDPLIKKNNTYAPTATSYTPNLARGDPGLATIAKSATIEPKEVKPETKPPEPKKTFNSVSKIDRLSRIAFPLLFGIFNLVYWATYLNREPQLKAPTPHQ
# Chain of GABAA (α1β2γ2) receptor (P47870 26-512 limits assumed): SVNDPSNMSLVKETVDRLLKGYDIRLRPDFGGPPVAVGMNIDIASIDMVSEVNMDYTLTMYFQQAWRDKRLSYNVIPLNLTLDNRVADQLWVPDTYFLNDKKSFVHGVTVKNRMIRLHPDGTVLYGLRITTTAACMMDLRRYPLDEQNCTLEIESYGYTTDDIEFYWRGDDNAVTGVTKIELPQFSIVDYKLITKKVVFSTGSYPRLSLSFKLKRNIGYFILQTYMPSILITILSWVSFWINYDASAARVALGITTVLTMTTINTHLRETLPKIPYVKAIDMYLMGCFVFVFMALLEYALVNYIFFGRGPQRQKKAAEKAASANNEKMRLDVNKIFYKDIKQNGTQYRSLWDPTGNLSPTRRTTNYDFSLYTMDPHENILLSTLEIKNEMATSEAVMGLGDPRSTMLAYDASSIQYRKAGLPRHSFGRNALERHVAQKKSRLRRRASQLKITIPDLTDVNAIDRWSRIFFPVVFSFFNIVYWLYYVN
# Chain of GABAA (α1β2γ2) receptor (P18507 40-475 limits assumed): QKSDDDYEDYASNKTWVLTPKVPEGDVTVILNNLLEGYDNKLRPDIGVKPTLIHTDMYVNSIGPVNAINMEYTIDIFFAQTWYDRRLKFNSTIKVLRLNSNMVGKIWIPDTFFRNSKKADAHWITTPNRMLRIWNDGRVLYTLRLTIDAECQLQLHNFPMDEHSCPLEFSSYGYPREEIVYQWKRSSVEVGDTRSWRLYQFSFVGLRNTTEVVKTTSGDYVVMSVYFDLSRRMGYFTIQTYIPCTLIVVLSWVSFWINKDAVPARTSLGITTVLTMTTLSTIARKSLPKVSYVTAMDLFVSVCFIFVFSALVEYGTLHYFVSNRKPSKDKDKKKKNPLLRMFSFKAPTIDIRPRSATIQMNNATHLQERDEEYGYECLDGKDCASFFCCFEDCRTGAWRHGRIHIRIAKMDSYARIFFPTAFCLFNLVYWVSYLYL
structure (smiles),measurement,setting,value
"CCS(=O)(=O)[C@@H](C)c1cccc([C@H](C)C2CC2)c1O [Compound 20, 2-((R)-1-cyclopropylethyl)-6-((S)-1-(ethylsulfonyl)ethyl)phenol]","effect on the heart rate, blood pressure and body temperature",Beagle dogs; 0.5 and 1 mg/kg,little effect
same,change in heart rate after administration,"Beagle dogs; control group 3 2 mg/kg, compound 20 0.5 and 1 mg/kg, within 1 h, recovery after 1 h",slow down in heart rate
same,AUC(0-t),[1],128 ng·h/mL
same,half-life,[1],47.4 min
same,EC50,"GABAA (α1β2γ2) receptor; HEK293, -70 mV, n=3, read-out: EC50",1560 nM
same,EC50,"GABAA (α1β2γ2) receptor; HEK293, text restatement, read-out: semi-activated concentration (EC50)",1560 nM
same,ED50,"SD rats; Rattus norvegicus, intravenous injection, loss of righting reflex, read-out: ED50",0.5 mg/kg
same,TI,SD rats; LD50/ED50,6.4
same,Anesthesia induction time,"SD rats; iv, administration to disappearance of righting reflex",10 s
same,Anesthesia maintenance time,"SD rats; iv, disappearance to recovery of righting reflex",624 s
same,LD50,"in vivo [2]; intravenous injection, read-out: LD50",3.2 mg/kg
same,MTD,"in vivo [2]; iv, maximum tolerated dose, read-out: MTD",2.2 mg/kg
same,AUC(0-t),[3],196 ng·h/mL
same,half-life,[3],19.8 min
same,ED50,"ICR mice; Mus musculus, iv",0.6 mg/kg
same,TI,"ICR mice; mice, LD50/ED50",5.8
same,Anesthesia induction time,"ICR mice; mice, iv, administration to disappearance of righting reflex",2 s
same,Anesthesia maintenance time,"ICR mice; mice, iv, disappearance to recovery of righting reflex",573 s
same,LD50,in vivo [4],3.5 mg/kg
same,MTD,in vivo [4],1.8 mg/kg
